The SangsterLogP compilation

SMILES	logP
Nc1cc(NC2CCCCC2)nc(N)[n+]1[O-]	1.62
C=CCN(CC=C)c1cc(N)[n+]([O-])c(N)n1	1.6
CCCCCCCCCCNc1cc(N)[n+]([O-])c(N)n1	4.08
Nc1cc(N2CCOCC2)nc(N)[n+]1[O-]	0.36
N=c1nc(N)c(N2CCCC2)cn1O	0.84
CCNc1cc(N)[n+]([O-])c(N)n1	-0.04
Nc1cc(N(C2CCCCC2)C2CCCCC2)nc(N)[n+]1[O-]	3.89
CNc1cc(N)[n+]([O-])c(N)n1	-0.49

Results, then the molecule that gave them:

logP	SMILES
2.16	CCCN(CCC)c1cc(N)[n+]([O-])c(N)n1
3.19	CCCCN(CCCC)c1cc(N)[n+]([O-])c(N)n1
1.16	CCN(CC)c1cc(N)[n+]([O-])c(N)n1
1.02	CCCCNc1cc(N)[n+]([O-])c(N)n1
0.16	CN(C)c1cc(N)[n+]([O-])c(N)n1
